Key:
ragweed [1] = assay: Test C preemergence; assay type: in vivo, Ambrosia artemisiifolia; details: preemergence, 0 to 100 scale (0 no effect, 100 complete control)
Method in brief: (§1)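 Visual injury score, 0–100 (100 = complete control), taken 10 days after treatment relative to untreated controls. Pre: directed spray onto soil over sown seeds. Post: foliar spray at one- to two-leaf stage, 2–10 cm. Solvent/surfactant formulation; loam–sand soil; greenhouse.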

pigweed, palmer [2] = assay: Test C postemergence; assay type: in vivo, Amaranthus palmeri; details: 10 days
Method in brief: as §1

oat, wild [3] = assay: Test C postemergence; assay type: in vivo, Avena fatua; details: 10 days
Text: (§2) Seeds of plant species selected from barnyardgrass (Echinochloa crusgalli), blackgrass (Alopecurus myosuroides), corn (Zea mays), foxtail, giant (giant foxtail, Setaria faberi), green foxtail (Setaria viridis), goosegrass (Eleusine indica), kochia (Bassia scoparia), oat, wild (wild oat, Avena fatua), pigweed, palmer (palmer amaranth, palmer pigweed, Amaranthus palmeri), Pigweed, Redroot (redroot pigweed, Amaranthus retroflexus), ragweed (common ragweed, Ambrosia artemisiifolia), ryegrass, Italian ([…] ryegrass, Lolium multiflorum), soybean (Glycine max), and wheat (Triticum aestivum) were planted into a blend of loam soil and sand and treated preemergence with a directed soil spray using test chemicals formulated in a non-phytotoxic solvent mixture which included a surfactant. At the same time, plants selected from these crops and weed species and also galium (catchweed bedstraw, Galium aparine) and horseweed (Erigeron canadensis) were planted in pots containing the same blend of loam soil and sand and treated with postemergence applications of test chemicals formulated in the same manner. Plants ranged in height from 2 to 10 cm and were in the one- to two-leaf stage for the postemergence treatment. Treated plants and untreated controls were maintained in a greenhouse for 10 days, after which time all treated plants were compared to untreated controls and visually evaluated for injury. Plant response ratings, summarized in Table C, are based on a 0 to 100 scale where 0 is no effect and 100 is complete control. A dash (-) response means no test result.

blackgrass [4] = assay: Test C preemergence; assay type: in vivo, Alopecurus myosuroides; details: preemergence, 0 to 100 scale (0 no effect, 100 complete control)
Method in brief: as §1

soybean [5] = assay: Test C postemergence; assay type: in vivo, Glycine max; details: 10 days
Text: as §2

blackgrass [6] = assay: Test C postemergence; assay type: in vivo, Alopecurus myosuroides; details: 10 days
Method in brief: as §1

ryegrass, Italian [7] = assay: Test C postemergence; assay type: in vivo, Lolium multiflorum; details: 10 days
Method in brief: as §1

corn [8] = assay: Test C preemergence; assay type: in vivo, Zea mays; details: preemergence, 0 to 100 scale (0 no effect, 100 complete control)
Text: as §2

galium = assay: Test C postemergence; assay type: in vivo, Galium aparine; details: postemergence, 10 days
Method in brief: as §1

ragweed [9] = assay: Test C postemergence; assay type: in vivo, Ambrosia artemisiifolia; details: 10 days
Method in brief: as §1

barnyardgrass [10] = assay: Test C preemergence; assay type: in vivo, Echinochloa crusgalli; details: preemergence, 0 to 100 scale (0 no effect, 100 complete control)
Method in brief: as §1

barnyardgrass [11] = assay: Test C postemergence; assay type: in vivo, Echinochloa crusgalli; details: 10 days
Method in brief: as §1

soybean [12] = assay: Test C preemergence; assay type: in vivo, Glycine max; details: preemergence, 0 to 100 scale (0 no effect, 100 complete control)
Text: as §2

kochia [13] = assay: Test C preemergence; assay type: in vivo, Bassia scoparia; details: preemergence, 0 to 100 scale (0 no effect, 100 complete control)
Method in brief: as §1

corn [14] = assay: Test C postemergence; assay type: in vivo, Zea mays; details: 10 days
Text: as §2

wheat [15] = assay: Test C postemergence; assay type: in vivo, Triticum aestivum; details: 10 days
Text: as §2

kochia [16] = assay: Test C postemergence; assay type: in vivo, Bassia scoparia; details: 10 days
Method in brief: as §1

ryegrass, Italian [17] = assay: Test C preemergence; assay type: in vivo, Lolium multiflorum; details: preemergence, 0 to 100 scale (0 no effect, 100 complete control)
Method in brief: as §1

oat, wild [18] = assay: Test C preemergence; assay type: in vivo, Avena fatua; details: preemergence, 0 to 100 scale (0 no effect, 100 complete control)
Text: as §2

green foxtail [19] = assay: Test C postemergence; assay type: in vivo, Setaria viridis; details: 10 days
Method in brief: as §1

pigweed, palmer [20] = assay: Test C preemergence; assay type: in vivo, Amaranthus palmeri; details: preemergence, 0 to 100 scale (0 no effect, 100 complete control)
Method in brief: as §1

wheat [21] = assay: Test C preemergence; assay type: in vivo, Triticum aestivum; details: preemergence, 0 to 100 scale (0 no effect, 100 complete control)
Text: as §2

horseweed = assay: Test C postemergence; assay type: in vivo, Erigeron canadensis; details: 10 days
Method in brief: as §1

green foxtail [22] = assay: Test C preemergence; assay type: in vivo, Setaria viridis; details: preemergence, 0 to 100 scale (0 no effect, 100 complete control)
Method in brief: as §1

[23] = 125 g ai/ha, postemergence, 0 to 100 scale, 0 no effect, 100 complete control
[24] = 500 g ai/ha, postemergence, 0 to 100 scale (0 no effect, 100 complete control)
[25] = Postemergence, 125 g ai/ha, 0 to 100 scale (0 no effect, 100 complete control)

COC(=O)N(C)c1ncn(-c2cccc(C(=O)N3C[C@H](C)Oc4c(C)cccc43)c2)n1 [30 0]
10: Plant response rating, Ryegrass, Italian (ryegrass, Italian [7]; [23]) | Corn plant response rating (corn [8]; 500 g ai/ha) | Plant response rating, Barnyardgrass (barnyardgrass [11]; [23]) | Plant response rating, Wheat (wheat [15]; [23]) | Plant response rating, Foxtail, Green (green foxtail [19]; [23])
30: Plant response rating, Pigweed, Palmer (pigweed, palmer [2]; [23]) | Plant response rating, Wheat (wheat [15]; [24]) | Oat, Wild plant response rating (oat, wild [18]; 500 g ai/ha) | Plant response rating, Horseweed (horseweed; [23]) | Plant response rating, Horseweed (horseweed; [24])
0: Ragweed plant response rating (ragweed [1]; Test C, 125 g ai/ha) | Plant response rating, Oat, Wild (oat, wild [3]; [23]) | Blackgrass plant response rating (blackgrass [4]; Test C, 125 g ai/ha) | Plant response rating, Blackgrass (blackgrass [6]; [23]) | Corn plant response rating (corn [8]; Test C, 125 g ai/ha) | Plant response rating, Ragweed (ragweed [9]; [23]) | Barnyardgrass plant response rating (barnyardgrass [10]; Test C, 125 g ai/ha) | Soybean plant response rating (soybean [12]; Test C, 125 g ai/ha) | Plant response rating, Corn (corn [14]; [23]) | Wheat plant response rating (wheat [21]; Test C, 125 g ai/ha)
100: Plant response rating, Soybean (soybean [5]; [24]) | Foxtail, Green plant response rating (green foxtail [22]; 500 g ai/ha)
20: Ragweed plant response rating (ragweed [1]; 500 g ai/ha) | Blackgrass plant response rating (blackgrass [4]; 500 g ai/ha) | Soybean plant response rating (soybean [12]; 500 g ai/ha) | Oat, Wild plant response rating (oat, wild [18]; Test C, 125 g ai/ha) | Pigweed, Palmer plant response rating (pigweed, palmer [20]; Test C, 125 g ai/ha) | Wheat plant response rating (wheat [21]; 500 g ai/ha)
60: Plant response rating, Galium (galium; 125 g ai/ha, 0 to 100 scale, 0 no effect, 100 complete control) | Plant response rating, Kochia (kochia [16]; [24]) | Ryegrass, Italian plant response rating (ryegrass, Italian [17]; Test C, 125 g ai/ha)
90: Plant response rating, Galium (galium; 500 g ai/ha, 0 to 100 scale (0 no effect, 100 complete control))
70: Plant response rating, Soybean (soybean [5]; [23]) | Kochia plant response rating (kochia [13]; 500 g ai/ha) | Plant response rating, Corn (corn [14]; [24])
40: Plant response rating, Pigweed, Palmer (pigweed, palmer [2]; [24]) | Plant response rating, Oat, Wild (oat, wild [3]; [24])
50: Plant response rating, Ragweed (ragweed [9]; [24]) | Barnyardgrass plant response rating (barnyardgrass [10]; 500 g ai/ha) | Plant response rating, Barnyardgrass (barnyardgrass [11]; [24]) | Kochia plant response rating (kochia [13]; Test C, 125 g ai/ha) | Plant response rating, Kochia (kochia [16]; [23]) | Plant response rating, Foxtail, Green (green foxtail [19]; [24])
80: Plant response rating, Blackgrass (blackgrass [6]; [24]) | Plant response rating, Ryegrass, Italian (ryegrass, Italian [7]; [24]) | Ryegrass, Italian plant response rating (ryegrass, Italian [17]; 500 g ai/ha) | Pigweed, Palmer plant response rating (pigweed, palmer [20]; 500 g ai/ha) | Foxtail, Green plant response rating (green foxtail [22]; Test C, 125 g ai/ha)

CCOC[C@H]1CN(C(=O)c2cc(-n3cnc(C(C)C)n3)cc3c2OCO3)c2cccc(Cl)c2O1 [40 0]
50: Blackgrass plant response rating (blackgrass [4]; 500 g ai/ha)
30: Plant response rating, Barnyardgrass (barnyardgrass [11]; [25]) | Plant response rating, Corn (corn [14]; [25]) | Oat, Wild plant response rating (oat, wild [18]; 500 g ai/ha)
0: Plant response rating, Oat, Wild (oat, wild [3]; [25]) | Plant response rating, Ryegrass, Italian (ryegrass, Italian [7]; [25]) | Corn plant response rating (corn [8]; 500 g ai/ha)
60: Plant response rating, Ragweed (ragweed [9]; [25])
20: Plant response rating, Soybean (soybean [5]; [25]) | Plant response rating, Wheat (wheat [15]; [25]) | Plant response rating, Foxtail, Green (green foxtail [19]; [25])
40: Plant response rating, Blackgrass (blackgrass [6]; [25]) | Wheat plant response rating (wheat [21]; 500 g ai/ha) | Plant response rating, Horseweed (horseweed; [25])
90: Kochia plant response rating (kochia [13]; 500 g ai/ha) | Ryegrass, Italian plant response rating (ryegrass, Italian [17]; 500 g ai/ha)
100: Plant response rating, Pigweed, Palmer (pigweed, palmer [2]; [25]) | Barnyardgrass plant response rating (barnyardgrass [10]; 500 g ai/ha) | Soybean plant response rating (soybean [12]; 500 g ai/ha) | Pigweed, Palmer plant response rating (pigweed, palmer [20]; 500 g ai/ha) | Foxtail, Green plant response rating (green foxtail [22]; 500 g ai/ha)
70: Ragweed plant response rating (ragweed [1]; 500 g ai/ha) | Plant response rating, Kochia (kochia [16]; [25])

— patent publication US20260262643A1, “HERBICIDAL BENZOXAZINES” (FMC CORPORATION, priority 2022, published 2026)
